ChEMBL document CHEMBL4011582, “Human drug-induced liver injury severity is highly associated with dual inhibition of liver mitochondrial function and bile salt export pump” (Hepatology, 2014)

Tests used:
clinical = conditions: human
Liver = type: ADME, mitochondria, Rattus norvegicus, Sprague-Dawley
Bile salt export pump = Bile salt export pump (Homo sapiens, UniProt O95342); type: ADME
Bile salt export pump, sequence (O95342 whole entry): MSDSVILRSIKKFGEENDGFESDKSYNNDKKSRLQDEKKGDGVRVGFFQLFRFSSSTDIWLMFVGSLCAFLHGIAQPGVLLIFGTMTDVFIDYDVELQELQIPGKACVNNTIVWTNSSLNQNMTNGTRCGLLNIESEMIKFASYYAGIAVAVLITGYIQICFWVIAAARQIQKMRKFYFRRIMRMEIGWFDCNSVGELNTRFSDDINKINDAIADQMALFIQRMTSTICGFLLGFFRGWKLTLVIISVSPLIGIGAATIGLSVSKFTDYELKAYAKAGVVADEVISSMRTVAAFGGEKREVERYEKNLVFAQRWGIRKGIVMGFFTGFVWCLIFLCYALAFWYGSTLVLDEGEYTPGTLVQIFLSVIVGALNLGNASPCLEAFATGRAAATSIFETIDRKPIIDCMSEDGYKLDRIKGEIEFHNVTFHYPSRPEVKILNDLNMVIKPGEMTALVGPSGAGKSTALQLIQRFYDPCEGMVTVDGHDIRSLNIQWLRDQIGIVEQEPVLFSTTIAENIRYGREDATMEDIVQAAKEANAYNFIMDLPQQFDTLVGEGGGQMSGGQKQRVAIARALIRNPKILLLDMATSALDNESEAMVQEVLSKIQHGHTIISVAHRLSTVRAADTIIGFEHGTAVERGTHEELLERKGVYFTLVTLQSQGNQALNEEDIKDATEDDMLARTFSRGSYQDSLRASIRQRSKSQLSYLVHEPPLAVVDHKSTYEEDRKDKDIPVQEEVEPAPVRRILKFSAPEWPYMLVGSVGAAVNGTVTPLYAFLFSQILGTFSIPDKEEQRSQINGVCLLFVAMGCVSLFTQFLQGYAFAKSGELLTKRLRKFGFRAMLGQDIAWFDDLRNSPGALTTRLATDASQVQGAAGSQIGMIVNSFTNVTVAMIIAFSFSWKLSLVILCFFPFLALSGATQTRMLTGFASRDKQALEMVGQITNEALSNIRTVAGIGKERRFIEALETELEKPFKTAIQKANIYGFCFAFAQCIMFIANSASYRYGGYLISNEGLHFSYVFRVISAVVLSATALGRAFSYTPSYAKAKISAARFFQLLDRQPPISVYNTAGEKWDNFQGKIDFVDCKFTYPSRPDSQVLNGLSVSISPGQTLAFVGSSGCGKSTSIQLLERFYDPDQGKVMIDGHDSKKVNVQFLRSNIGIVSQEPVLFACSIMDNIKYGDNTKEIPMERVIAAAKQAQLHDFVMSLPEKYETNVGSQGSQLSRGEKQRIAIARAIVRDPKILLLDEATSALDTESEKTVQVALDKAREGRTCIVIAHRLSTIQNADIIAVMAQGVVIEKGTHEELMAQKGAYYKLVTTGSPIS

## CCCc1nc2c(C)cc(-c3nc4ccccc4n3C)cc2n1Cc1ccc(-c2ccccc2C(=O)O)cc1
clinical
  Cmax: 851 nM

## CC(C)(C)NC(=O)[C@@H]1C[C@@H]2CCCC[C@@H]2CN1C[C@@H](O)[C@H](Cc1ccccc1)NC(=O)[C@H](CC(N)=O)NC(=O)c1ccc2ccccc2n1
Liver
  IC50: Non-Toxic
clinical
  Cmax: 3360 nM

## CC(C)CN(C[C@@H](O)[C@H](Cc1ccccc1)NC(=O)O[C@H]1CCOC1)S(=O)(=O)c1ccc(N)cc1
Liver
  IC50: Non-Toxic
clinical
  Cmax: 15200 nM

## CC(C)(C)NC(=O)[C@@H]1CN(Cc2cccnc2)CCN1C[C@@H](O)C[C@@H](Cc1ccccc1)C(=O)N[C@H]1c2ccccc2C[C@H]1O.O
Liver
  IC50: Non-Toxic
clinical
  Cmax: 11700 nM

## Cc1c(O)cccc1C(=O)N[C@@H](CSc1ccccc1)[C@H](O)CN1C[C@H]2CCCC[C@H]2C[C@H]1C(=O)NC(C)(C)C
clinical
  Cmax: 7040 nM

## CC(C)(C)NCC(O)c1ccc(O)c(CO)c1 (centres undefined) [ALBUTEROL]
Liver
  IC50: Non-Toxic
clinical
  Cmax: 58 nM

## Oc1ncnc2[nH]ncc12 [ALLOPURINOL]
Bile salt export pump; read-out: IC50
  IC50: > 100 µM

## CCCN(CCC)C(=O)Cc1c(-c2ccc(Cl)cc2)nc2ccc(Cl)cn12 [ALPIDEM]
clinical
  Cmax: 285 nM

## C[C@H]1C[C@H]2[C@@H]3CCC4=CC(=O)C=C[C@]4(C)[C@@]3(Cl)[C@@H](O)C[C@]2(C)[C@@]1(O)C(=O)CO [BECLOMETHASONE]
Bile salt export pump; read-out: IC50
  IC50: 10.3 µM
Liver
  IC50: Non-Toxic
clinical
  Cmax: 0.2 nM

## CCc1oc2ccccc2c1C(=O)c1cc(Br)c(O)c(Br)c1 [BENZBROMARONE]
Bile salt export pump; read-out: IC50
  IC50: 15.9 µM
clinical
  Cmax: 4340 nM

## CC(O)(CS(=O)(=O)c1ccc(F)cc1)C(=O)Nc1ccc(C#N)c(C(F)(F)F)c1 (centres undefined) [BICALUTAMIDE]
Bile salt export pump; read-out: IC50
  IC50: 29.3 µM
clinical
  Cmax: 1970 nM

## COc1ccccc1Oc1c(NS(=O)(=O)c2ccc(C(C)(C)C)cc2)nc(-c2ncccn2)nc1OCCO [BOSENTAN]
Bile salt export pump; read-out: IC50
  IC50: 29 µM
clinical
  Cmax: 7430 nM

## CN(C)CCC(c1ccc(Br)cc1)c1ccccn1 (centres undefined) [BROMPHENIRAMINE]
Liver
  IC50: Non-Toxic
clinical
  Cmax: 36 nM

## O=C1CC2(CCCC2)CC(=O)N1CCCCN1CCN(c2ncccn2)CC1 [BUSPIRONE]
Bile salt export pump; read-out: IC50
  IC50: > 100 µM
Liver
  IC50: Non-Toxic
clinical
  Cmax: 5 nM

## C[C@H](CCC(=O)O)[C@H]1CC[C@H]2[C@@H]3[C@H](O)C[C@@H]4C[C@H](O)CC[C@]4(C)[C@H]3CC[C@]12C [CHENODIOL]
Bile salt export pump; read-out: IC50
  IC50: 10.6 µM
Liver
  IC50: Non-Toxic
clinical
  Cmax: 8000 nM

## CCC(=O)O[C@]1(C(=O)CCl)[C@@H](C)C[C@H]2[C@@H]3CCC4=CC(=O)C=C[C@]4(C)[C@@]3(F)[C@@H](O)C[C@@]21C [CLOBETASOL PROPIONATE]
Liver
  IC50: Non-Toxic
clinical
  Cmax: 43 nM

## CC(C)/N=c1\cc2n(-c3ccc(Cl)cc3)c3ccccc3nc-2cc1Nc1ccc(Cl)cc1 [CLOFAZIMINE]
Liver
  IC50: Non-Toxic
clinical
  Cmax: 1480 nM

## Clc1ccccc1C(c1ccccc1)(c1ccccc1)n1ccnc1 [CLOTRIMAZOLE]
clinical
  Cmax: 87 nM

## C#C[C@]1(O)CC[C@H]2[C@@H]3CCC4=Cc5oncc5C[C@]4(C)[C@H]3CC[C@@]21C [DANAZOL]
clinical
  Cmax: 750 nM

## O=C(O)Cc1ccccc1Nc1c(Cl)cccc1Cl [DICLOFENAC]
Bile salt export pump; read-out: IC50
  IC50: 44 µM

## CC(CCc1ccc(O)cc1)NCCc1ccc(O)c(O)c1 (centres undefined) [DOBUTAMINE]
Bile salt export pump; read-out: IC50
  IC50: > 100 µM
Liver
  IC50: Non-Toxic
clinical
  Cmax: 1340 nM

## Clc1ccc(COC(Cn2ccnc2)c2ccc(Cl)cc2Cl)cc1 (centres undefined) [ECONAZOLE]
Bile salt export pump
  IC50: 13.4 µM
clinical
  Cmax: 1 nM

## CCC(=O)O[C@H]1[C@H](O[C@@H]2[C@@H](C)[C@H](O[C@H]3C[C@@](C)(OC)[C@@H](O)[C@H](C)O3)[C@@H](C)C(=O)O[C@H](CC)[C@@](C)(O)[C@H](O)[C@@H](C)C(=O)[C@H](C)C[C@@]2(C)O)O[C@H](C)C[C@@H]1N(C)C.CCCCCCCCCCCCOS(=O)(=O)O [ERYTHROMYCIN ESTOLATE]
clinical
  Cmax: 4200 nM

## C#C[C@]1(OC(C)=O)CC[C@H]2[C@@H]3CCC4=C[C@@H](OC(C)=O)CC[C@@H]4[C@H]3CC[C@@]21C [ETHYNODIOL DIACETATE]
Bile salt export pump; read-out: IC50
  IC50: 62 µM
clinical
  Cmax: 29 nM

## CC(C)OC(=O)C(C)(C)Oc1ccc(C(=O)c2ccc(Cl)cc2)cc1 [FENOFIBRATE]
Bile salt export pump; read-out: IC50
  IC50: 41 µM
clinical
  Cmax: 12100 nM

## CC(C)(C)NC(=O)[C@H]1CC[C@H]2[C@@H]3CC[C@H]4NC(=O)C=C[C@]4(C)[C@H]3CC[C@]12C [FINASTERIDE]
Liver
  IC50: Non-Toxic
clinical
  Cmax: 99 nM

## CCOC(=O)c1ncn2c1CN(C)C(=O)c1cc(F)ccc1-2 [FLUMAZENIL]
Bile salt export pump; read-out: IC50
  IC50: > 100 µM
Liver
  IC50: Non-Toxic
clinical
  Cmax: 1120 nM

## CC(C)C(=O)Nc1ccc([N+](=O)[O-])c(C(F)(F)F)c1 [FLUTAMIDE]
Bile salt export pump; read-out: IC50
  IC50: 68 µM
clinical
  Cmax: 362 nM

## CC(C)n1c(/C=C/C(O)CC(O)CC(=O)O)c(-c2ccc(F)cc2)c2ccccc21 (centres undefined) [FLUVASTATIN]
Liver
  IC50: Non-Toxic
clinical
  Cmax: 663 nM

## Nc1nc(=O)c2nc(CNc3ccc(C(=O)N[C@@H](CCC(=O)O)C(=O)O)cc3)cnc2[nH]1 [FOLIC ACID]
Liver
  IC50: Non-Toxic
clinical
  Cmax: 135 nM

## NS(=O)(=O)c1cc(C(=O)O)c(NCc2ccco2)cc1Cl [FUROSEMIDE]
clinical
  Cmax: 18100 nM

## COc1cc2ncnc(Nc3ccc(F)c(Cl)c3)c2cc1OCCCN1CCOCC1 [GEFITINIB]
clinical
  Cmax: 356 nM

## CCC1=C(C)CN(C(=O)NCCc2ccc(S(=O)(=O)NC(=O)N[C@H]3CC[C@H](C)CC3)cc2)C1=O [GLIMEPIRIDE]
Bile salt export pump; read-out: IC50
  IC50: 34 µM
Liver
  IC50: Non-Toxic
clinical
  Cmax: 1120 nM

## COc1ccc(Cl)cc1C(=O)NCCc1ccc(S(=O)(=O)NC(=O)NC2CCCCC2)cc1 [GLYBURIDE]
clinical
  Cmax: 210 nM

## Cc1ccc(NC(=O)c2ccc(CN3CCN(C)CC3)cc2)cc1Nc1nccc(-c2cccnc2)n1 [IMATINIB]
Liver
  IC50: Non-Toxic
clinical
  Cmax: 7090 nM

## CCCCC1=NC2(CCCC2)C(=O)N1Cc1ccc(-c2ccccc2-c2nnn[nH]2)cc1 [IRBESARTAN]
Liver
  IC50: Non-Toxic
clinical
  Cmax: 3500 nM

## CC1=C(/C=C/C(C)=C/C=C/C(C)=C\C(=O)O)C(C)(C)CCC1 [ISOTRETINOIN]
clinical
  Cmax: 2870 nM

## CC(=O)N1CCN(c2ccc(OCC3COC(Cn4ccnc4)(c4ccc(Cl)cc4Cl)O3)cc2)CC1 (centres undefined) [KETOCONAZOLE]
clinical
  Cmax: 12500 nM

## CS(=O)(=O)CCNCc1ccc(-c2ccc3ncnc(Nc4ccc(OCc5cccc(F)c5)c(Cl)c4)c3c2)o1 [LAPATINIB]
Liver
  IC50: Non-Toxic
clinical
  Cmax: 4180 nM

## N[C@@H](Cc1cc(I)c(Oc2ccc(O)c(I)c2)c(I)c1)C(=O)O [LIOTHYRONINE]
clinical
  Cmax: 108 nM

## CN(C)C(=O)C(CCN1CCC(O)(c2ccc(Cl)cc2)CC1)(c1ccccc1)c1ccccc1 [LOPERAMIDE]
Bile salt export pump; read-out: IC50
  IC50: 67 µM
Liver
  IC50: Non-Toxic
clinical
  Cmax: 8 nM

## CCCCc1nc(Cl)c(CO)n1Cc1ccc(-c2ccccc2-c2nnn[nH]2)cc1 [LOSARTAN]
Liver
  IC50: Non-Toxic
clinical
  Cmax: 651 nM

## CC[C@H](C)C(=O)O[C@H]1C[C@@H](C)C=C2C=C[C@H](C)[C@H](CC[C@@H]3C[C@@H](O)CC(=O)O3)[C@H]21 [LOVASTATIN]
Liver
  IC50: Non-Toxic
clinical
  Cmax: 25 nM

## Cc1cccc(Nc2ccccc2C(=O)O)c1C [MEFENAMIC ACID]
Bile salt export pump; read-out: IC50
  IC50: 57 µM
clinical
  Cmax: 26900 nM

## Cc1ncc2n1-c1ccc(Cl)cc1C(c1ccccc1F)=NC2 [MIDAZOLAM]
Liver
  IC50: Non-Toxic
clinical
  Cmax: 650 nM

## CCc1nn(CCCN2CCN(c3cccc(Cl)c3)CC2)c(=O)n1CCOc1ccccc1 [NEFAZODONE]
Bile salt export pump; read-out: IC50
  IC50: 7 µM
clinical
  Cmax: 6800 nM

## COC(=O)C1=C(C)NC(C)=C(C(=O)OCCN(C)Cc2ccccc2)C1c1cccc([N+](=O)[O-])c1 (centres undefined) [NICARDIPINE]
clinical
  Cmax: 81 nM

## COC(=O)C1=C(C)NC(C)=C(C(=O)OC)C1c1ccccc1[N+](=O)[O-] [NIFEDIPINE]
Bile salt export pump; read-out: IC50
  IC50: 69 µM
Liver
  IC50: Non-Toxic

## COCCOC(=O)C1=C(C)NC(C)=C(C(=O)OC(C)C)C1c1cccc([N+](=O)[O-])c1 (centres undefined) [NIMODIPINE]
clinical
  Cmax: 195 nM

## COC(=O)C1=C(C)NC(C)=C(C(=O)OCC(C)C)C1c1ccccc1[N+](=O)[O-] (centres undefined) [NISOLDIPINE]
Liver
  IC50: Non-Toxic
clinical
  Cmax: 12.9 nM

## CCN(CC)CC#CCOC(=O)C(O)(c1ccccc1)C1CCCCC1 (centres undefined) [OXYBUTYNIN]
Liver
  IC50: Non-Toxic
clinical
  Cmax: 22 nM

## CC(=O)O[C@H]1C(=O)[C@@]2(C)[C@H]([C@H](OC(=O)c3ccccc3)[C@]3(O)C[C@H](OC(=O)[C@H](O)[C@@H](NC(=O)c4ccccc4)c4ccccc4)C(C)=C1C3(C)C)[C@]1(OC(C)=O)CO[C@@H]1C[C@@H]2O [PACLITAXEL]
Liver
  IC50: Non-Toxic

## CC(COc1ccccc1)N(CCCl)Cc1ccccc1 (centres undefined) [PHENOXYBENZAMINE]
Liver
  IC50: Non-Toxic
clinical
  Cmax: 197 nM

## Cc1ccc(N(CC2=NCCN2)c2cccc(O)c2)cc1 [PHENTOLAMINE]
Liver
  IC50: Non-Toxic
clinical
  Cmax: 86 nM

## CCc1ccc(CCOc2ccc(CC3SC(=O)NC3=O)cc2)nc1 (centres undefined) [PIOGLITAZONE]
clinical
  Cmax: 2950 nM

## CC(=O)[C@H]1CC[C@H]2[C@@H]3CCC4=CC(=O)CC[C@]4(C)[C@H]3CC[C@]12C [PROGESTERONE]
clinical
  Cmax: 193 nM

## CO[C@H]1/C=C/O[C@@]2(C)Oc3c(C)c(O)c4c(c3C2=O)C2=NC3(CCN(CC(C)C)CC3)NC2=C(NC(=O)/C(C)=C\C=C\[C@H](C)[C@H](O)[C@@H](C)[C@@H](O)[C@@H](C)[C@H](OC(C)=O)[C@@H]1C)C4=O [RIFABUTIN]
Liver
  IC50: Non-Toxic
clinical
  Cmax: 685 nM

## CC(C)c1nc(CN(C)C(=O)N[C@H](C(=O)N[C@@H](Cc2ccccc2)C[C@H](O)[C@H](Cc2ccccc2)NC(=O)OCc2cncs2)C(C)C)cs1 [RITONAVIR]
Liver
  IC50: Non-Toxic
clinical
  Cmax: 19700 nM

## CNC(=O)c1cc(Oc2ccc(NC(=O)Nc3ccc(Cl)c(C(F)(F)F)c3)cc2)ccn1 [SORAFENIB]
clinical
  Cmax: 132 nM

## CN1CCN(CCCN2c3ccccc3Sc3ccc(C(F)(F)F)cc32)CC1 [TRIFLUOPERAZINE]
Liver
  IC50: Non-Toxic
clinical
  Cmax: 5.3 nM

## Cc1c(C)c2c(c(C)c1O)CCC(C)(COc1ccc(CC3SC(=O)NC3=O)cc1)O2 (centres undefined) [TROGLITAZONE]
clinical
  Cmax: 6390 nM

## COc1cc(C(=O)NS(=O)(=O)c2ccccc2C)ccc1Cc1cn(C)c2ccc(NC(=O)OC3CCCC3)cc12 [ZAFIRLUKAST]
clinical
  Cmax: 1210 nM
